Results from patent US11286263B2, “Macrocyclic fluorine substituted indole derivatives” (The Broad Institute, Inc., priority 2017, dated 2022).
“And” between values parts separate entries of the source, which are not always exact repeats. Identical values can stand only once. Counter-ions that a name gives are not always drawn. Like-named read-outs stand apart in the source and are kept apart here.

Legend:
[1] = tested on: A2780; assay: Antiproliferation assay A2780 (Assay 7); type: cell-based; settings: A2780 cells, CellTiter-Glo, single determinations, read-out: IC50 Antiproli A2780
Procedure: (§1) Assessment of the Anti-Proliferative Effect of Compounds in Different Cell Lines
(§2) The impact of compounds on the proliferation of different cell lines was assessed using the CellTiter-Glo® Luminescent Cell Viability reagent from Promega (G7573).
(§3) In parallel, cells were plated in a reference (day 0) plate for time zero determination.
(§4) Rim wells were excluded. The cells were incubated for 72 h hours in a humidified incubator at 37° C. The day 0 plate was measured by adding 30 μL/well of CTG solution (CellTiter-Glo® Luminescent Cell Viability reagent, Promega G7573) to time zero wells in the reference plate followed by a 10 minutes incubation and luminescence reading at 0.1 ms. using the PHERAstar FS microplate reader (BMG Labtech).
(§5) After 72 h incubation, the treated plates were measured in the same way as the day 0 plate mentioned above.

[2] = tested on: SUDHL5; assay: Induction of caspase-3/7 activity, SUDHL5 (Assay 4); type: cell-based; settings: SUDHL5 cells
Procedure: (§6) Induction of Caspase-3/7 Activity upon Treatment of Cells with Selected Compounds
(§7) The BH3-domain of MCL-1 sequesters pro-apoptotic proteins, thereby inhibiting apoptosis. In contrast, MCL-1 inhibitors are expected to antagonize this effect leading to an increase in apoptosis, which can be determined by measuring the activity of caspase-3/7.
(§8) The activity of caspase-3/7 was determined in DLBCL (Diffuse large B-cell lymphoma) cell lines (SUDHL5 and SUDHL10) upon treatment with different compounds, using the Caspase-Glo® 3/7 reagent from Promega (G8092).
(§9) Rim wells were excluded. The cells were incubated for 3 h hours in a humidified incubator at 37° C.
(§10) For the evaluation of the results, the background measured with “medium-only” was subtracted from all other values. […] The Bella DRC Master Sheet was used to calculate EC50s, with fixed C0=1 and Cl=plateau/max induction for the reference compound.

[3] = biological target: MCL-1 (Homo sapiens (Human), UniProt Q07820, K194A/K197A/R201A); assay: Protein-protein interaction assay MCL-1/Noxa BH3 peptide (MCL-1 assay), TR-FRET; type: binding; settings: MCL-1/Noxa BH3 peptide TR-FRET; median
Procedure: Protein-Protein Interaction Assay: MCL-1/Noxa BH3 Peptide (MCL-1 Assay)
The dose-dependent inhibition by the compounds described in this invention of the interaction between MCL-1 and the BH3 domain of Noxa (both human) was determined using a steady state binding competition assay with time-resolved fluorescence energy transfer (TR-FRET) readout. For that purpose MCL-1 (amino acids 173-321, N-terminal fused to Maltose Binding Protein (MBP) SEQ ID 1)) and a synthetic Noxa BH3-derived peptide of sequence Biotin-PEG2-PEG2-PAELEVE-Nva-ATQLRRFGDKLNFRQKLL-amide (SEQ ID 2) served as protein receptor and tracer ligand respectively. The MBP-MCL-1 was purchased from Beryllium (Bedford, Mass., USA). The expression and purification of this protein construct has been described elsewhere (DOI:10.1371/journal.pone.0125010). The Noxa BH3-derived peptide can be obtained from e.g. Biosyntan (Berlin, Germany).
In the assay 11 different concentrations of each compound (0.1 nM, 0.33 nM, 1.1 nM, 3.8 nM, 13 nM, 44 nM, 0.15 μM, 0.51 μM, 1.7 μM, 5.9 μM and 20 μM) were typically measured as duplicates in the same microtiter plate. For that, 100-fold concentrated DMSO solutions were prepared by serial dilutions (1:3.4) of a 2 mM stock solution in a clear, 384-well microtiter plate (Greiner Bio-One, Frickenhausen, Germany). From there, 50 nl were transferred in a dark test plate (Greiner Bio-One, Frickenhausen, Germany). The assay was initiated by addition of 2 μl of a 2,5-fold concentrated MBP-MCL-1 solution (usually for a 1 nM end concentration in 5 μl reaction volume) in aqueous assay buffer [50 mM Tris/HCl pH 7, 100 mM sodium chloride (NaCl), 50 mM potassium fluoride (KF), 0.005% Tween-20, 2 mM DTT, 0.1% bovine gamma globulin (BGG)] to the compounds in the assay plate. This was followed by a 10-minute incubation step at 22° C. for pre-equilibration of the putative complex between MBP-MCL-1 and the compounds. After that, 3 μl of a 1.67-fold concentrated solution (in assay buffer) consisting of Noxa BH3-derived peptide (1 nM end concentration) and TR-FRET detection reagents [1.67 nM anti-MBP-Eu cryptate and 1.67 nM streptavidin-XL665 (both from Cisbio Bioassays, Codolet, France)], were added.
The mixture was incubated in the dark for one hour at 22° C. and then overnight at 4° C. The formation of MCL-1/Noxa complexes was determined by measuring the resonance energy transfer of the anti-MBP-Eu-cryptate antibody to the streptavidin-XL665 present in the reaction. For that purpose, the fluorescence emission at 620 nm and 665 nm after excitation at 330-350 nm was measured in a TR-FRET measuring instrument, for instance a Rubystar or a Pherastar (both from BMG Lab Technologies, Offenburg, Germany) or a Viewlux (Perkin-Elmer). The ratio of the emission at 665 nm and at 622 nm was used as indicator of the amount of MCL-1/NOXA complexes present.
The resulting data (ratio) were normalized, taking 0% inhibition as the mean value of control measurements (usually 32 data points) where all reagents were included. In this case 50 nl DMSO were used instead of compounds. A 100% inhibition corresponded to the mean value of control measurements (usually 32 data points) where all reagents except MCL-1 were included. IC50 values were determined by regression analysis based on a 4 parameter equation (minimum, maximum, IC50, Hill; Y=Max+(Min−Max)/(1+(X/IC50)^Hill) using the Screener Software (Genedata).

[4] = tested on: SUDHL5; assay: Induction of cytotoxicity, SUDHL5 (Assay 6); settings: read-out: IC50 Cytotox SUDHL5 [M] (median), SUDHL5 cells, 5 h, CellTiter-Glo
[5] = tested on: SUDHL10; assay: Induction of caspase-3/7 activity, SUDHL10 (Assay 4); type: cell-based; settings: SUDHL10 cells
Procedure: as §6, §7, §8, §9, §10

[6] = tested on: SUDHL5; assay: Antiproliferation assay SUDHL5 (Assay 7); type: cell-based; settings: SUDHL5 cells, CellTiter-Glo, median, read-out: IC50 Antiproli SUDHL5 [M] (median)
Procedure: as §1, §2, §3, §4, §5

[7] = tested on: SUDHL10; assay: Induction of cytotoxicity, SUDHL10 (Assay 6); settings: read-out: IC50 Cytotox SUDHL10 [M] (median), SUDHL10 cells, 5 h, CellTiter-Glo
[8] = tested on: AMO-1; assay: Antiproliferation assay AMO-1 (Assay 7); type: cell-based; settings: AMO-1 cells, CellTiter-Glo, single determinations, read-out: IC50 Antiproli AMO-1
Procedure: as §1, §2, §3, §4, §5

[9] = tested on: MV-4-11; assay: Antiproliferation assay MV-4-11 (Assay 7); type: cell-based; settings: MV-4-11 cells, CellTiter-Glo, single determinations, read-out: IC50 Antiproli MV-4-11
Procedure: as §1, §2, §3, §4, §5

[10] = Homo sapiens, SU-DHL-5, 3 h, Caspase-Glo 3/7, median
[11] = Homo sapiens, SU-DHL10, 3 h, Caspase-Glo 3/7, median

Chain of MCL-1 (Q07820 whole entry K194A/K197A/R201A, looked up): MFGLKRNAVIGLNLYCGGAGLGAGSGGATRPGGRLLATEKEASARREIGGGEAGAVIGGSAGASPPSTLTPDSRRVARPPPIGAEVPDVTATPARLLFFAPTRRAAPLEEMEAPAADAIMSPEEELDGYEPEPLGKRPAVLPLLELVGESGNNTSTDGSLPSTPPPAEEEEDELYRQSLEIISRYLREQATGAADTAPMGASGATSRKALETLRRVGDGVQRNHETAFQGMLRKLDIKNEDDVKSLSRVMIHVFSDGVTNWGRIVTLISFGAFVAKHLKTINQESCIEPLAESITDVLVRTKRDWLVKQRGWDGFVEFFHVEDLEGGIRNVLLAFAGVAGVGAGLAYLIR

Structure (SMILES)	IC50 ([1]; 72 h) [µM]	EC50 ([2]; 3 h, Caspase-Glo 3/7, median) [µM]	IC50 [3] [nM]	EC50 ([5]; 3 h, Caspase-Glo 3/7, median) [µM]	IC50 ([6]; 72 h) [M]	IC50 ([1]; Homo sapiens, A2780, 72 h) [µM]	EC50 [2, 10] [µM]	EC50 [5, 11] [µM]	IC50 ([6]; Homo sapiens, SU-DHL-5, 72 h) [M]	IC50 ([1]; 72 h, listed as 08) [µM]	IC50 ([9]; 72 h, listed as 08) [µM]	IC50 ([9]; Homo sapiens, MV4-11, 72 h) [µM]	IC50 [4] [M]	IC50 [7] [M]	IC50 ([8]; 72 h)	IC50 ([4]; Homo sapiens, SU-DHL-5, 5 h) [M]	IC50 ([7]; Homo sapiens, SU-DHL10, 5 h) [M]	IC50 ([8]; Homo sapiens, AMO1, 72 h) [µM]	IC50 ([9]; 72 h)
Cc1c2c(nn1C)COCCCCn1c(C(=O)O)c(CCCOc3cccc4cc(F)ccc34)c3ccc(F)c-2c31 (single isomer, unassigned; enantiomer 2) [Example 14, 4-fluoro-7-{3-[(6-fluoronaphthalen-1-yl)oxy]propyl}-2,3-dimethyl-2,10,11,12,13,15-hexahydro-pyrazolo[4′,3′:9,10][1,6]oxazacycloundecino[8,7,6-hi]indole-8-carboxylic acid-N-ethylethanamine salt (enantiomer 2)]	19.8	5.4	17	14	4e-06								6e-06	1.2e-05	7.54 µM and 11.6 µM				
CCc1c2c(nn1C)COCCCCn1c(C(=O)O)c(CCCOc3cccc4ccccc34)c3ccc(F)c-2c31 (single isomer, unassigned; enantiomer 2) [Example 8, 3-ethyl-4-fluoro-2-methyl-7-{3-[(naphthalen-1-yl)oxy]propyl}-2,10,11,12,13,15-hexahydro-pyrazolo[4′,3′:9,10][1,6]oxazacycloundecino[8,7,6-hi]indole-8-carboxylic acid-N-ethylethanamine salt (enantiomer 2)]		30	26	> 33	1.5e-05					20	21.3		2.7e-05	> 3.3e-05					
Cc1c2c(nn1C)CNCCCCn1c(C(=O)O)c(CCCOc3cccc4ccccc34)c3ccc(F)c-2c31 (single isomer, unassigned; enantiomer 2) [Example 49, 4-fluoro-2,3-dimethyl-7-{3-[(naphthalen-1-yl)oxy]propyl}-10,11,12,13,14,15-hexahydro-2H-pyrazolo[3′,4′:8,9][1,6]diazacycloundecino[10,11,1-hi]indole-8-carboxylic acid (enantiomer 2)]	15.1	> 33	40	> 33	1e-05								> 2.7e-05	> 3.3e-05	> 33 µM				18.9 µM and 23.3 µM
CCc1nn(C)c2c1-c1c(F)ccc3c(CCCOc4cccc5cc(F)ccc45)c(C(=O)O)n(c13)CCCCOC2 (single isomer, unassigned; enantiomer 2) [Example 40, 3-ethyl-4-fluoro-7-{3-[(6-fluoronaphthalen-1-yl)oxy]propyl}-1-methyl-1,10,11,12,13,15-hexahydropyrazolo[4′,3′:9,10][1,6]oxazacycloundecino[8,7,6-hi]indole-8-carboxylic acid-N-ethylethanamine salt (enantiomer 2)]	29.6	21	40	> 33	1.4e-05								2.3e-05	> 2.5e-05	> 33 µM				14.3 µM and 11.6 µM

These reach a lower IC50 [3]. Values come first.

IC50 ([1]; 72 h) [µM]	EC50 ([2]; 3 h, Caspase-Glo 3/7, median) [µM]	IC50 [3] [nM]	EC50 ([5]; 3 h, Caspase-Glo 3/7, median) [µM]	IC50 ([6]; 72 h) [M]	IC50 ([1]; Homo sapiens, A2780, 72 h) [µM]	EC50 [2, 10] [µM]	EC50 [5, 11] [µM]	IC50 ([6]; Homo sapiens, SU-DHL-5, 72 h) [M]	IC50 ([1]; 72 h, listed as 08) [µM]	IC50 ([9]; 72 h, listed as 08) [µM]	IC50 ([9]; Homo sapiens, MV4-11, 72 h) [µM]	Structure (SMILES)	IC50 [4] [M]	IC50 [7] [M]	IC50 ([8]; 72 h)	IC50 ([4]; Homo sapiens, SU-DHL-5, 5 h) [M]	IC50 ([7]; Homo sapiens, SU-DHL10, 5 h) [M]	IC50 ([8]; Homo sapiens, AMO1, 72 h) [µM]	IC50 ([9]; 72 h)
		1.4			10.2	1.5	3.3	2.2e-06				CCc1c2c(nn1C)COCCCCn1c(C(=O)O)c(CCCOc3ccc(F)c4ccccc34)c3ccc(F)c-2c31 (racemic) [Example 26, (rac)-12-ethyl-13-fluoro-1-(3-((4-fluoronaphthalen-1-yl)oxy)propyl)-11-methyl-4,5,6,7,9,11-hexahydropyrazolo[4′,3′:9,10][1]oxa[6]azacycloundecino[8,7,6-hi]indole-2-carboxylic acid]				1.8e-06	3.7e-06	4.31	
		0.84			> 33	20	> 33	6.1e-06			13.4	Cc1c2c(nn1C)C[N+](C)(C)CCCCn1c(C(=O)O)c(CCCOc3cccc4ccccc34)c3ccc(F)c-2c31 [Example 50, 8-carboxy-4-fluoro-2,3,14,14-tetramethyl-7-[3-(1-naphthyloxy)propyl]-10,11,12,13,14,15-hexa-hydro-2H-pyrazolo[3′,4′:8,9][1,6]diazacycloundecino[10,11,1-hi]indol-14-ium trifluroacetate]				1.6e-05	> 3.3e-05		
